Source: patent US10450305B2, “LKB1-AMPK activators for therapeutic use in polycystic kidney disease” (The University of Kansas, priority 2014, dated 2019)

Assays:
AMPK [1] = assay: Western blot of phosphorylated AMPK (P-AMPK/AMPK) in ADPKD cells; assay type: cell-based, human; details: for phosphorylation of AMPK: 100 nm, 24 h; for rank order of the effect on AMPK phosphorylation: western blot
Protocol: (§1) We designed and synthesized a small molecule LKB1 activator BIT-11 by incorporating an oxadiazole moiety into a unique 3-substituted 2H-chromene derivative. The effects of BIT-11 on phosphorylated AMPK (P-AMPK) and S6 kinase (P-S6K), a downstream target of mTOR, were determined by western blot analysis. To test the drug's effect on Cl^− transport, ADPKD monolayers were incubated in the absence and presence of BIT-11 and then treated with forskolin, a cAMP agonist. Changes in Cl^− transport were measured by short circuit current. For in vitro cyst growth assays, ADPKD cells were seeded within a collagen matrix and treated with EGF and forskolin±BIT-11, and total surface area of cysts per well was calculated from individual cyst diameters. […] The numbers above blots indicate P-AMPK/AMPK normalized to control. […] ADPKD cells were treated with BIT129, BIT130, and BIT131 (e.g., 100 nm) for 24 h, then cell lysates were prepared. […] The rank order of the effect of the new drugs on AMPK phosphorylation was BIT-131>BIT-130>BIT-129.

S6 kinase (S6K) = assay: Western blot of phosphorylated S6 kinase (P-S6K/S6K), downstream target of mTOR, in ADPKD cells; assay type: cell-based, human; details: 24 hours, control media 0.05% fetal bovine serum
Protocol: as §1

human ADPKD cells [2] = assay: Proliferation of human ADPKD cells (automated cell count); assay type: cell-based; details: 10 to 1000 nM, 48 h, 0.05% fetal bovine serum
Excerpt: Cells were counted using an automated cell counter.

human ADPKD cells [3] = assay: In vitro cyst growth of ADPKD cells within a collagen matrix; assay type: cell-based; details: 5 μM forskolin and 5 ng/ml EGF, cysts diameter ≥50 μm
Protocol: (§2) We designed and synthesized a small molecule LKB1 activator BIT-11 by incorporating an oxadiazole moiety into a unique 3-substituted 2H-chromene derivative. The effects of BIT-11 on phosphorylated AMPK (P-AMPK) and S6 kinase (P-S6K), a downstream target of mTOR, were determined by western blot analysis. To test the drug's effect on Cl^− transport, ADPKD monolayers were incubated in the absence and presence of BIT-11 and then treated with forskolin, a cAMP agonist. Changes in Cl^− transport were measured by short circuit current. For in vitro cyst growth assays, ADPKD cells were seeded within a collagen matrix and treated with EGF and forskolin±BIT-11, and total surface area of cysts per well was calculated from individual cyst diameters.
Cells were seeded in PureCol Type I collagen and stimulated to form cysts with 5 μM forskolin (FSK) and 5 ng/ml epidermal growth factor (EGF) for 3 days. […] FIG. 4A includes representative images of individual wells.

ADPKD cell monolayers [4] = assay: cAMP-induced Cl- secretion (short circuit current) across ADPKD cell monolayers; assay type: cell-based, human; details: 10 μM for 24 hours, FSK 10 μM, n=10 pairs of monolayers
Protocol: as §2
FIG. 5A-5B show the effect of BIT-11 on cAMP-induced Cl^− secretion by ADPKD cell monolayers. ADPKD cells were grown as polarized monolayers on permeable Snapwell supports. […] ADPKD monolayers were mounted in Ussing chambers and treated with 10 μM benzamil to block the Na^+ current prior to the experiment. FSK (10 μM), a potent cAMP agonist, was added to maximally stimulate anion secretion.

Pkd1 mutant kidneys = assay: Ex vivo cyst formation in Pkd1-/- embryonic kidneys in metanephric organ culture; set-up: species or system mouse; details: 10 μM, 100 μM 8-Br-cAMP, E15.5 kidneys, 4 days in culture
Protocol: FIG. 6 includes images that show the effect of BIT-11 on cyst-like tubule expansions in Pkd1 mutant kidneys. Kidneys were harvested from Pkd1 mutant (Pkd1^−/−) mice at embryonic day 15.5 (E15.5) and placed on permeable cell culture inserts. The kidneys were bathed in media containing 100 μM 8-Bromo-adenosine 3′,5′-cyclic monophosphate (cAMP) to stimulate mural epithelial cell proliferation and Cl^−-dependent fluid secretion, key factors in cyst formation. Images of kidneys were captured using a digital camera connected to a dissecting microscope and cystic area was monitored for 4 days. cAMP induced the formation of cyst-like dilations in Pkd1^−/− kidneys that progressively enlarged over 4 days in culture.

AMPK [5] = assay: P-AMPK levels in kidneys of wild type mice after i.p. dosing; assay type: in vivo, mouse; details: wild type mice, 5, 10 or 25 mg/kg i.p. once per day for 4 days, two hours after last dose, compared to vehicle
Protocol: (§3) Normal mice were given BIT-11 at 5, 10 or 25 mg/kg body weight by daily intraperitoneal injection for 4 days. BIT-11 was delivered at 20% DMSO and 80% corn oil. Two hours after the last injection, the mice were sacrificed and the kidneys were snap-frozen and stored at −80 degree C., until tissue lysates were prepared. Tissues were homogenized in a lysis buffer containing detergent and protease and phosphatase inhibitors. Proteins were resolved by SDS PAGE and detected by immunoblot using P-AMPK and AMPK antibodies.
(§4) Another study included dosing wild type mice with BIT-11 once per day for 4 days and measured P-AMPK levels in the kidneys two hours after the last dose.

[6] = Tolerability in wild type mice; assay type: in vivo; details: mice, 5, 10 and 25 mg/kg i.p., once per day for 4 days
Protocol: as §3, §4

ADPKD cell monolayers [7] = details: found previously, selective CFTR inhibitor; cited from earlier work
[8] = in vivo; cited from earlier work

With `O=C(O)c1ccc(-c2noc(C3=Cc4cc(Cl)cc(Cl)c4OC3c3ccccc3)n2)cc1` (stereo not drawn) [BIT-11] the “effect on P-AMPK/AMPK” value (AMPK [1]; ADPKD cells, BIT-11 at 10 nM, 100 nM and 1,000 nM, 24 hours) was “can promote phosphorylation of AMPK increasingly with increasing amounts”, the “biological activity compared with AMPK activator Metformin” value (AMPK [1]; comparison with Metformin) was “much better efficacy” and the “effect on P-S6K/S6K” value (S6 kinase (S6K)) was “can inhibit phosphorylation of S6K increasingly at increasing amounts”. The “effect on proliferation of human ADPKD cells” value (human ADPKD cells [2]) was “increasingly inhibit proliferation of ADPKD cells”, the “total cyst surface area (in vitro cyst growth)” value (human ADPKD cells [3]) was “can inhibit cyst proliferation” and the “cAMP-induced Cl- secretion (steady-state short circuit current)” value (ADPKD cell monolayers [4]) was “a decrease in cAMP-induced Cl^− secretion”. For the same compound, the “cyst formation in Pkd1-/- kidneys” value (Pkd1 mutant kidneys) was “nearly eliminated cyst formation”, the “P-AMPK levels in the kidneys” value (AMPK [5]) was “markedly increased P-AMPK levels in the kidneys” and the tolerability [6] was “well tolerated”.
In the case of `CC1(C)OB(c2ccc(-c3noc(C4=Cc5cc(Cl)cc(Cl)c5OC4c4ccccc4)n3)cc2)OC1(C)C` (stereo not drawn) [BIT-129], the “phosphorylation of AMPK” value (AMPK [1]; ADPKD cells) is reported as “can promote phosphorylation of AMPK” and the “rank order of the effect on AMPK phosphorylation” value (AMPK [1]; ADPKD cells) is reported as “BIT-131>BIT-130>BIT-129”.
With `OB(O)c1ccc(-c2noc(C3=Cc4cc(Cl)cc(Cl)c4OC3c3ccccc3)n2)cc1` (stereo not drawn) [BIT-130] the “phosphorylation of AMPK” value (AMPK [1]; ADPKD cells) was “can promote phosphorylation of AMPK” and the “rank order of the effect on AMPK phosphorylation” value (AMPK [1]; ADPKD cells) was “BIT-131>BIT-130>BIT-129”.
For `O=C(O)c1ccc(/C=C2\SC(=S)N(c3cccc(C(F)(F)F)c3)C2=O)cc1` [CFTRinh-172], the “anion current across ADPKD monolayers” value (ADPKD cell monolayers [7]) is listed as “completely blocked”.
For `CN(C)C(=N)N=C(N)N` [Metformin], the “eliminated by renal excretion” value [8] is given as about 80%.
